Columns and labels:
C-CBL (residues 46-435) = molecular target: T1, C-CBL (residues 46-435) (Homo sapiens, UniProt P22681); experiment: Ligand Displacement Assay (LDA), HTRF competitive binding against BODIPY-labeled fluorescent tracer, C-CBL; conditions: geometric mean of the number of tests, read-out: C-CBL Ki (nM) GMean
T1 construct: Purified CBL-B (residues 36-427) and C-CBL (residues 46-435) proteins from baculovirus-infected insect cells; made in house; host or cells: baculovirus-infected insect cells
T1 sequence (P22681 46-435): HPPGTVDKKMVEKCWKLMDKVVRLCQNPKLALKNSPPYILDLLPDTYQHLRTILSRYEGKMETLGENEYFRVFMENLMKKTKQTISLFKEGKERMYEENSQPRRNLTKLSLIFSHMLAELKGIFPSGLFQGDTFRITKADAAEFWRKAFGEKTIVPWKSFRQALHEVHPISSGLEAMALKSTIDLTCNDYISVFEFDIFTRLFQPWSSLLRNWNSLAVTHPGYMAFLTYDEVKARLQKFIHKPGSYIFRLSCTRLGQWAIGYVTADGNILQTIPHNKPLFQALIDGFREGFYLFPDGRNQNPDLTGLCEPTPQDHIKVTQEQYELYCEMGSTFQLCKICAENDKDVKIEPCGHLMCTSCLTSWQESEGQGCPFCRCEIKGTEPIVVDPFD
Method in brief: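 First, the insect-cell-expressed protein is biotinylated at its amino-terminal AviTag with BirA and coupled to SA-Tb. Next, the tracer KD is determined for each protein. Finally, compounds are titrated three-fold in duplicate […], at 2% DMSO, and Ki is reported as a geometric mean.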

WT CBL-B (36-427) = molecular target: T2, WT CBL-B (36-427) (Homo sapiens, UniProt Q13191); experiment: Surface Plasmon Resonance (SPR) assay, binding affinity and kinetics, CBL-B; conditions: SPR at 10° C., biotinylated WT CBL-B (36-427) on streptavidin chip; geometric mean; read-out: CBL-B SPR Kd (nM) GMean
T2 construct: N-terminal biotinylated WT CBL-B (36-427) and C-CBL (46-435) were captured on a streptavidin (SA) coated sensor chip
Method in brief: (§1)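 SPR kinetics at 10° C, run either single-cycle (0.001–1 μM, 3-fold, 6 points, 120 s on, >5400 s off) or multi-cycle (10 points, 2-fold, top 10 or 100 μM, 90 s on). Proteins were N-biotinylated CBL-B (36-427) and C-CBL (46-435) on SA surfaces, in pH 7.2 HEPES, 2% DMSO.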

C-CBL (46-435) = molecular target: T3, C-CBL (46-435) (Homo sapiens, UniProt P22681); experiment: Surface Plasmon Resonance (SPR) assay, binding affinity and kinetics, C-CBL; conditions: SPR at 10° C., biotinylated C-CBL (46-435) on streptavidin chip; geometric mean; read-out: C-CBL SPR Kd (nM) GMean
T3 construct: N-terminal biotinylated WT CBL-B (36-427) and C-CBL (46-435) were captured on a streptavidin (SA) coated sensor chip
T3 sequence (P22681 46-435): T1 sequence (P22681 46-435)
Method in brief: as §1

| SMILES | Ki (C-CBL (residues 46-435)) [nM] | Kd (WT CBL-B (36-427)) [nM] | Kd (C-CBL (46-435)) [nM] |
| --- | --- | --- | --- |
| C[C@H]1CCCN(Cc2nc(C(F)(F)F)cc3c(-c4cccc(C5(Cc6nncn6C)COC5)c4)n[nH]c23)C1 [Example C30, 7-{[(3S)-3-methylpiperidin-1-yl]methyl}-3-(3-{3-[(4-methyl-4H-1,2,4-triazol-3-yl)methyl]oxetan-3-yl}phenyl)-5-(trifluoromethyl)-1H-pyrazolo[3,4-c]pyridine] | 23.4 | 3 | 35.9 |
| CC(c1nc(C(F)(F)F)cc2c(-c3cccc(C4(Cc5nncn5C)COC4)c3)n[nH]c12)N1CCCCC1 (single isomer, unassigned) [Example C21, 3-(3-{3-[(4-methyl-4H-1,2,4-triazol-3-yl)methyl]oxetan-3-yl}phenyl)-7-[(1ξ)-1-(piperidin-1-yl)ethyl]-5-(trifluoromethyl)-1H-pyrazolo[3,4-c]pyridine] | 93.5 | 13.7 | 108 |
| C[C@@H]1CCCN([C@H](C)c2nc(C(F)(F)F)cc3c(-c4cccc(C5(Cc6nncn6C)COC5)c4)n[nH]c23)C1 (single isomer, unassigned) [Example D14] | 183 | 11.1 | 140 |
| C[C@H](N[C@H]1CCC[C@@H]1O)c1nc(C(F)(F)F)cc2c(-c3cccc([C@H](c4nncn4C)C4CCC4)c3)n[nH]c12 (single isomer, unassigned) [Example C47] | 5 | 1.6 | 7.2 |
| C[C@H]1CCCN(Cc2nc(C(F)(F)F)cc3c(-c4cccc([C@H](c5nncn5C)C5CCC5)c4)n[nH]c23)C1 [Example C7, 3-{3-[(R)-cyclobutyl(4-methyl-4H-1,2,4-triazol-3-yl)methyl]phenyl}-7-{[(3S)-3-methylpiperidin-1-yl]methyl}-5-(trifluoromethyl)-1H-pyrazolo[3,4-c]pyridine] | 53.1 | 2.7 | 47.7 |
| Cn1cnnc1CC1(c2cccc(-c3n[nH]c4ncc(C(F)(F)F)cc34)c2)COC1 [Example B3, 3-(3-{3-[(4-methyl-4H-1,2,4-triazol-3-yl)methyl]oxetan-3-yl}phenyl)-5-(trifluoromethyl)-1H-pyrazolo[3,4-b]pyridine] | 363 | 67.9 | 861 |
| C[C@H](c1nc(C(F)(F)F)cc2c(-c3cccc(C4(Cc5nncn5C)COC4)c3)n[nH]c12)N1C[C@@H](F)[C@H](F)C1 (single isomer, unassigned) [Example C26] | 198 | 13.2 | 183 |
| CC1CN(Cc2nc(C(F)(F)F)cc3c(-c4cccc(C5(Cc6nncn6C)COC5)c4)n[nH]c23)CCC1(F)F (single isomer, unassigned) [Example C31, 7-{[(3ξ)-4,4-difluoro-3-methylpiperidin-1-yl]methyl}-3-(3-{3-[(4-methyl-4H-1,2,4-triazol-3-yl)methyl]oxetan-3-yl}phenyl)-5-(trifluoromethyl)-1H-pyrazolo[3,4-c]pyridine] | 112 | 4.7 | 133 |
| CC(NC1CNC1)c1nc(C(F)(F)F)cc2c(-c3cccc(C4(Cc5nncn5C)COC4)c3)n[nH]c12 (single isomer, unassigned) [Example C27, N-{(1ξ)-1-[3-(3-{3-[(4-methyl-4H-1,2,4-triazol-3-yl)methyl]oxetan-3-yl}phenyl)-5-(trifluoromethyl)-1H-pyrazolo[3,4-c]pyridin-7-yl]ethyl}azetidin-3-amine] | 76 | 8.7 | 71 |
| C[C@H](c1nc(C(F)(F)F)cc2c(-c3cccc(C4(Cc5nncn5C)COC4)c3)n[nH]c12)N1C[C@H](F)[C@@H](F)C1 (single isomer, unassigned) [Example D8] | 113 | 15.8 | 177 |
| C[C@@H](N[C@@H]1CCC[C@@H]1O)c1nc(C(F)(F)F)cc2c(-c3cccc([C@H](c4nncn4C)C4CCC4)c3)n[nH]c12 (single isomer, unassigned) [Example D16] | 24.5 | 3.6 | 43.1 |
| C[C@H](NC1CC[C@H]1O)c1nc(C(F)(F)F)cc2c(-c3cccc([C@H](c4nncn4C)C4CCC4)c3)n[nH]c12 (single isomer, unassigned) [Example D30] | 5.1 | 1.1 | 5.6 |
| C[C@H](NC1CCCC1)c1nc(C(F)(F)F)cc2c(-c3cccc([C@H](c4nncn4C)C4CCC4)c3)n[nH]c12 (single isomer, unassigned) [Example C10] | 108 | 11.5 | 189 |
| Cn1cnnc1CC1(c2cccc(-c3n[nH]c4c(CN5CCCCC5)nc(C(F)(F)F)cc34)c2)COC1 [Example C33, 3-(3-{3-[(4-methyl-4H-1,2,4-triazol-3-yl)methyl]oxetan-3-yl}phenyl)-7-[(piperidin-1-yl)methyl]-5-(trifluoromethyl)-1H-pyrazolo[3,4-c]pyridine] | 111 | 6.8 | 107 |
| Cn1cnnc1CC1(c2cccc(-c3n[nH]c4c(CN[C@H]5CCC(F)(F)C5)nc(C(F)(F)F)cc34)c2)COC1 [Example C38, (1S)-3,3-difluoro-N-{[3-(3-{3-[(4-methyl-4H-1,2,4-triazol-3-yl)methyl]oxetan-3-yl}phenyl)-5-(trifluoromethyl)-1H-pyrazolo[3,4-c]pyridin-7-yl]methyl}cyclopentan-1-amine] | 32.9 | 7.5 | 70.5 |
| C[C@H](N)c1nc(C(F)(F)F)cc2c(-c3cccc([C@H](c4nncn4C)C4CCC4)c3)n[nH]c12 [Example K12, (1S)-1-[3-{3-[(R)-cyclobutyl(4-methyl-4H-1,2,4-triazol-3-yl)methyl]phenyl}-5-(trifluoromethyl)-1H-pyrazolo[3,4-c]pyridin-7-yl]ethan-1-amine] | 136 | 4.2 | 209 |
| Cn1cnnc1[C@@H](c1cccc(-c2n[nH]c3c(CN[C@@H]4CCC[C@@H]4O)nc(C(F)(F)F)cc23)c1)C1CCC1 [Example C1, (1S,2R)-2-({[3-{3-[(R)-cyclobutyl(4-methyl-4H-1,2,4-triazol-3-yl)methyl]phenyl}-5-(trifluoromethyl)-1H-pyrazolo[3,4-c]pyridin-7-yl]methyl}amino)cyclopentan-1-ol] | 7.1 | 1.2 | 7.6 |
| C[C@H](N[C@@H]1CCC[C@@H]1O)c1nc(C(F)(F)F)cc2c(-c3cccc([C@H](c4nncn4C)C4CCC4)c3)n[nH]c12 (single isomer, unassigned) [Example D15] | 1 | 2.5 | 6.2 |
| C[C@H](N[C@@H]1CCC(F)(F)C1)c1nc(C(F)(F)F)cc2c(-c3cccc(C4(Cc5nncn5C)COC4)c3)n[nH]c12 (single isomer, unassigned) [Example C17] | 24.8 | 1.8 | 28.3 |
| CC(c1nc(C(F)(F)F)cc2c(-c3cccc(C4(Cc5nncn5C)COC4)c3)n[nH]c12)N1CCCCC1 (single isomer, unassigned) [Example C22, 3-(3-{3-[(4-methyl-4H-1,2,4-triazol-3-yl)methyl]oxetan-3-yl}phenyl)-7-[(1ξ)-1-(piperidin-1-yl)ethyl]-5-(trifluoromethyl)-1H-pyrazolo[3,4-c]pyridine] | 133 | 8.2 | 116 |
| C[C@@H](N[C@H]1CCC(F)(F)C1)c1nc(C(F)(F)F)cc2c(-c3cccc(C4(Cc5nncn5C)COC4)c3)n[nH]c12 (single isomer, unassigned) [Example C13] | 8 | 2.8 | 11.9 |
| C[C@H](c1nc(C(F)(F)F)cc2c(-c3cccc(C4(Cc5nncn5C)COC4)c3)n[nH]c12)N1CCC(F)(F)C1 (single isomer, unassigned) [Example D6] | 21 | 1.8 | 31 |
| Cn1cnnc1CC1(c2cccc(-c3n[nH]c4cnc(C(F)(F)F)cc34)c2)COC1 [Example B1, 3-(3-(3-((4-methyl-4H-1,2,4-triazol-3-yl)methyl)oxetan-3-yl)phenyl)-5-(trifluoromethyl)-1H-pyrazolo[3,4-c]pyridine] | 283 | 49.5 | 450 |
| Cn1cnnc1[C@@H](c1cccc(-c2n[nH]c3c(CN[C@H]4CCOC4)nc(C(F)(F)F)cc23)c1)C1CCC1 [Example D1, (3S)—N-{[3-{3-[(R)-cyclobutyl(4-methyl-4H-1,2,4-triazol-3-yl)methyl]phenyl}-5-(trifluoromethyl)-1H-pyrazolo[3,4-c]pyridin-7-yl]methyl}oxolan-3-amine] | 210 | 3.7 | 208 |

Source: US20260125375A1 (Pfizer Inc., priority 2022, published 2026)
